Laboratory results taken from publication PMC8523698, “Preclinical characterization of an intravenous coronavirus 3CL protease inhibitor for the potential treatment of COVID19” (Nature Communications, 2021).
Values joined by “and” are separate entries in the source; they are usually repeats but may differ in a detail not shown here. Equal entries are not always repeated. Where two headings read alike, the source gives them in different places.

Assays:
[1] = system: SARS-CoV-2 Washington strain 1 (USA_WA1/2020); type: cell-based
HCoV-229E = assay: Viral CPE assay in MRC-5 cells (CellTiter Glo); type: cell-based; conditions: Human coronavirus 229E
CYP2C8 = target: T1, CYP2C8 (Homo sapiens, UniProt P10632); assay: Reversible CYP inhibition in human liver microsomes; conditions: for activity at 0.1 µM / activity at 0.214 µM / activity at 0.979 µM / activity at 2.09 µM / activity at 4.48 µM / activity at 20.5 µM / activity at 43.8 µM / activity at 93.5 µM / activity at 200 µM: pH 7.4, Percent of Control Activity
T1 sequence (P10632 1-490): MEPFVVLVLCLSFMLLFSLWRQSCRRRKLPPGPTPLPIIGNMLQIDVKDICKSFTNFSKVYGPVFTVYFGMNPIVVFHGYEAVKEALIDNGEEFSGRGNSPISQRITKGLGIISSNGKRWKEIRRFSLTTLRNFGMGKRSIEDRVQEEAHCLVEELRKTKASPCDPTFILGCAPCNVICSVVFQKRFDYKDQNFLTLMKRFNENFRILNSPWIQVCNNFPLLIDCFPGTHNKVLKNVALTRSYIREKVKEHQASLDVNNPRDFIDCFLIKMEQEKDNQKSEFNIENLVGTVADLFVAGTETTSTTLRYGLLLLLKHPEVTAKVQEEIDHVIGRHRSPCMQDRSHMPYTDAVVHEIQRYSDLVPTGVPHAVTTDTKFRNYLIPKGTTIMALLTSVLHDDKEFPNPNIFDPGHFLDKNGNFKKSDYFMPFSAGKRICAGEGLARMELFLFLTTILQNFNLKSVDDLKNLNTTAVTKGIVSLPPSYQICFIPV

CYP2C19 = CYP2C19 (Homo sapiens, UniProt P33261); assay: as above
Sequence of CYP2C19 (P33261 whole entry): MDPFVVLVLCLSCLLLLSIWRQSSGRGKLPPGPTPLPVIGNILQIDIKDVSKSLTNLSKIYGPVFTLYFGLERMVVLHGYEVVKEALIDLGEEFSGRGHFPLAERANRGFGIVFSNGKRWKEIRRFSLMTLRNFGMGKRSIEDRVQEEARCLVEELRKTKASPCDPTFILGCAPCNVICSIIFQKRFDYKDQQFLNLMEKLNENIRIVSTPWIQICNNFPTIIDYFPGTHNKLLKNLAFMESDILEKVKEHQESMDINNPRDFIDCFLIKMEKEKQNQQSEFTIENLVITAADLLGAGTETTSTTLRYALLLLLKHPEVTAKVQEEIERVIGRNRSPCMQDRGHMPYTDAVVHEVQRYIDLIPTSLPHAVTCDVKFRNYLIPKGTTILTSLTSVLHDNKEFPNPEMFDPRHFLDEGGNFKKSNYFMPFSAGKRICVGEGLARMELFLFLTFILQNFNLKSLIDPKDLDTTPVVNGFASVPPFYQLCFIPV

COc1cccc2[nH]c(C(=O)N[C@@H](CC(C)C)C(=O)N[C@@H](C[C@@H]3CCNC3=O)C(=O)CO)cc12 [PF-00835231]
hill coefficient (m) [1]: 3 | EC50 (HCoV-229E; MRC5, MRC-5, minus efflux inhibitor, individual determinations by date): 80.6 nM | EC50 (HCoV-229E; MRC5, read-out: EC50 GeoMean (95% CI), efflux inhibitor CP-100356: 0): 69 nM | EC50 (HCoV-229E; MRC5, read-out: EC50 GeoMean (95% CI), efflux inhibitor CP-100356: 0.5 μM): 80 nM | Percent of Control Activity (CYP2C8; CYP 2C8, 0.1 µM, 30-Minute Preincubation, 0.1 µM): 98.0% and 103.9% | Percent of Control Activity (CYP2C8; CYP 2C8, 0.1 µM, Zero-Minute Preincubation, 0.1 µM): 104.8% and 112.8% | Percent of Control Activity (CYP2C8; CYP 2C8, 0.214 µM, 30-Minute Preincubation, 0.214 µM): 93.1% and 90.6% | Percent of Control Activity (CYP2C8; CYP 2C8, 0.214 µM, Zero-Minute Preincubation, 0.214 µM): 107.5% and 109.2% | Percent of Control Activity (CYP2C8; CYP 2C8, 0.979 µM, 30-Minute Preincubation, 0.979 µM): 105.7% and 92.9% | Percent of Control Activity (CYP2C8; CYP 2C8, 2.09 µM, 30-Minute Preincubation, 2.09 µM): 93.9% and 94.5% | Percent of Control Activity (CYP2C8; CYP 2C8, 2.09 µM, Zero-Minute Preincubation, 2.09 µM): 100.1% and 105.9% | Percent of Control Activity (CYP2C8; CYP 2C8, 4.48 µM, 30-Minute Preincubation, 4.48 µM): 91.6% and 90.7% | Percent of Control Activity (CYP2C8; CYP 2C8, 4.48 µM, Zero-Minute Preincubation, 4.48 µM): 107.2% and 107.1% | Percent of Control Activity (CYP2C8; CYP 2C8, 20.5 µM, 30-Minute Preincubation, 20.5 µM): 94.2% and 94.7% | Percent of Control Activity (CYP2C8; CYP 2C8, 20.5 µM, Zero-Minute Preincubation, 20.5 µM): 95.8% and 108.3% | Percent of Control Activity (CYP2C8; CYP 2C8, 43.8 µM, 30-Minute Preincubation, 43.8 µM): 90.3% | Percent of Control Activity (CYP2C8; CYP 2C8, 43.8 µM, Zero-Minute Preincubation, 43.8 µM): 96.9% and 95.4% | Percent of Control Activity (CYP2C8; CYP 2C8, 93.5 µM, 30-Minute Preincubation, 93.5 µM): 68.7% and 77.7% | Percent of Control Activity (CYP2C8; CYP 2C8, 93.5 µM, Zero-Minute Preincubation, 93.5 µM): 87.1% and 95.1% | Percent of Control Activity (CYP2C8; CYP 2C8, 200 µM, 30-Minute Preincubation, 200 µM): 65.4% and 64.5% | Percent of Control Activity (CYP2C8; CYP 2C8, 200 µM, Zero-Minute Preincubation, 200 µM): 78.5% and 82.2% | IC50 (CYP2C8; human, microsomes, pH 7.4): > 200000 nM | activity at 0.1 µM (CYP2C8; human, microsomes, CYP 2C8, 0.1 µM, 30-Minute Preincubation): 97.4% | activity at 0.1 µM (CYP2C8; human, microsomes, CYP 2C8, 0.1 µM, Zero-Minute Preincubation): 99.7% | activity at 0.214 µM (CYP2C8; human, microsomes, CYP 2C8, 0.214 µM, 30-Minute Preincubation): 91% | activity at 0.214 µM (CYP2C8; human, microsomes, CYP 2C8, 0.214 µM, Zero-Minute Preincubation): 103% | activity at 0.979 µM (CYP2C8; human, microsomes, CYP 2C8, 0.979 µM, 30-Minute Preincubation): 98.3% | activity at 0.979 µM (CYP2C8; human, microsomes, CYP 2C8, 0.979 µM, Zero-Minute Preincubation): 108% | activity at 2.09 µM (CYP2C8; human, microsomes, CYP 2C8, 2.09 µM, 30-Minute Preincubation): 92.8% | activity at 2.09 µM (CYP2C8; human, microsomes, CYP 2C8, 2.09 µM, Zero-Minute Preincubation): 110% | activity at 4.48 µM (CYP2C8; human, microsomes, CYP 2C8, 4.48 µM, 30-Minute Preincubation): 85.8% | activity at 4.48 µM (CYP2C8; human, microsomes, CYP 2C8, 4.48 µM, Zero-Minute Preincubation): 104% | activity at 20.5 µM (CYP2C8; human, microsomes, CYP 2C8, 20.5 µM, 30-Minute Preincubation): 86% | activity at 20.5 µM (CYP2C8; human, microsomes, CYP 2C8, 20.5 µM, Zero-Minute Preincubation): 93.6% | activity at 43.8 µM (CYP2C8; human, microsomes, CYP 2C8, 43.8 µM, 30-Minute Preincubation): 82.6% | activity at 43.8 µM (CYP2C8; human, microsomes, CYP 2C8, 43.8 µM, Zero-Minute Preincubation): 91.9% | activity at 93.5 µM (CYP2C8; human, microsomes, CYP 2C8, 93.5 µM, 30-Minute Preincubation): 76.7% | activity at 93.5 µM (CYP2C8; human, microsomes, CYP 2C8, 93.5 µM, Zero-Minute Preincubation): 91.2% | activity at 200 µM (CYP2C8; human, microsomes, CYP 2C8, 200 µM, 30-Minute Preincubation): 62.8% | activity at 200 µM (CYP2C8; human, microsomes, CYP 2C8, 200 µM, Zero-Minute Preincubation): 79.6% | Percent of Control Activity (CYP2C19; CYP 2C19, 0.1 µM, Zero-Minute Preincubation, 0.1 µM): 97.1% and 93.1% | Percent of Control Activity (CYP2C19; CYP 2C19, 0.214 µM, 30-Minute Preincubation, 0.214 µM): 94.5% and 97.7% | Percent of Control Activity (CYP2C19; CYP 2C19, 0.214 µM, Zero-Minute Preincubation, 0.214 µM): 96.9% and 95.6% | Percent of Control Activity (CYP2C19; CYP 2C19, 0.979 µM, Zero-Minute Preincubation, 0.979 µM): 91.0% and 93.6% | Percent of Control Activity (CYP2C19; CYP 2C19, 2.09 µM, 30-Minute Preincubation, 2.09 µM): 78.6% and 76.3% | Percent of Control Activity (CYP2C19; CYP 2C19, 2.09 µM, Zero-Minute Preincubation, 2.09 µM): 89.4% and 88.4% | Percent of Control Activity (CYP2C19; CYP 2C19, 4.48 µM, 30-Minute Preincubation, 4.48 µM): 87.7% and 90.1% | Percent of Control Activity (CYP2C19; CYP 2C19, 4.48 µM, Zero-Minute Preincubation, 4.48 µM): 88.9% and 87.5% | Percent of Control Activity (CYP2C19; CYP 2C19, 20.5 µM, 30-Minute Preincubation, 20.5 µM): 82.9% and 81.5% | Percent of Control Activity (CYP2C19; CYP 2C19, 20.5 µM, Zero-Minute Preincubation, 20.5 µM): 89.8% and 81.5% | Percent of Control Activity (CYP2C19; CYP 2C19, 43.8 µM, 30-Minute Preincubation, 43.8 µM): 68.7% | Percent of Control Activity (CYP2C19; CYP 2C19, 43.8 µM, Zero-Minute Preincubation, 43.8 µM): 83.4% and 80.9% | Percent of Control Activity (CYP2C19; CYP 2C19, 93.5 µM, 30-Minute Preincubation, 93.5 µM): 66.6% and 74.6% | Percent of Control Activity (CYP2C19; CYP 2C19, 93.5 µM, Zero-Minute Preincubation, 93.5 µM): 77.3% | Percent of Control Activity (CYP2C19; CYP 2C19, 200 µM, 30-Minute Preincubation, 200 µM): 62.1% and 65.9% | Percent of Control Activity (CYP2C19; CYP 2C19, 200 µM, Zero-Minute Preincubation, 200 µM): 65.6% and 68.4% | IC50 (CYP2C19; human, microsomes, pH 7.4): > 200000 nM | activity at 0.1 µM (CYP2C19; human, microsomes, pH 7.4, Percent of Control Activity, CYP 2C19, 0.1 µM, Zero-Minute Preincubation): 95.2% | activity at 0.214 µM (CYP2C19; human, microsomes, pH 7.4, Percent of Control Activity, CYP 2C19, 0.214 µM, 30-Minute Preincubation): 99% | activity at 0.214 µM (CYP2C19; human, microsomes, pH 7.4, Percent of Control Activity, CYP 2C19, 0.214 µM, Zero-Minute Preincubation): 92.9% | activity at 0.979 µM (CYP2C19; human, microsomes, pH 7.4, Percent of Control Activity, CYP 2C19, 0.979 µM, Zero-Minute Preincubation): 81.3% | activity at 2.09 µM (CYP2C19; human, microsomes, pH 7.4, Percent of Control Activity, CYP 2C19, 2.09 µM, 30-Minute Preincubation): 79.9% | activity at 2.09 µM (CYP2C19; human, microsomes, pH 7.4, Percent of Control Activity, CYP 2C19, 2.09 µM, Zero-Minute Preincubation): 85.8% | activity at 4.48 µM (CYP2C19; human, microsomes, pH 7.4, Percent of Control Activity, CYP 2C19, 4.48 µM, 30-Minute Preincubation): 88.7%
